The numbers were not newly measured in PMC11974678 (bioRxiv, 2025), which cites them from elsewhere.

The Kd is the free concentration of one partner at which half of the binding sites on the other are occupied at equilibrium, for simple one-to-one binding.

SMILES strings stand for the structures.

For this series, the target named is T1, FABP1 (Homo sapiens, UniProt P07148).
T1 sequence (P07148 with tags, fused parts or gaps): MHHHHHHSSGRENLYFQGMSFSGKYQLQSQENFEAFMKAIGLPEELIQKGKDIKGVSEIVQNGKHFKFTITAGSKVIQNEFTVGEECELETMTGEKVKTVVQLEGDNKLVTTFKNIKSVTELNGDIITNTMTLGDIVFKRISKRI
Conditions: read-out: KD of binding to FABP1.

Take `O=C(O)C(F)(F)C(F)(F)C(F)(F)C(F)(F)C(F)(F)C(F)(F)C(F)(F)F` [335-67-1, perfluorooctanoic acid]: the Kd was 18.8 µM.
